Test results reported in patent publication US20180252712A1, “RECEPTOR FOR NOROVIRUS AND USES THEREOF” (priority 2017, published 2018).

What was measured:
MNoV^CW3 = assay: CRISPR screen in BV2-Cas9 cells, sgRNA enrichment after MNoV^CW3 infection; assay type: cell-based, murine norovirus; settings: for log2 fold enrichment after MNV infection relative to mock infected cells, CW3 MOI 0.05: MNoV^CW3, MOI 0.05, ten days post-infection; for log2 fold enrichment after MNV infection relative to mock infected cells, CW3 MOI 5: MNoV^CW3, MOI 5, ten days post-infection
Description: (§1) BV2 cells were transduced with pXPR_101 (Addgene plasmid 52962) and selected with blasticidin for eleven days. Cas9 activity was assessed by transducing parental BV2 or BV2-Cas9 cells with pXPR_011 (Addgene plasmid 59702), expresses eGFP and a sgRNA targeting eGFP at an MOI<1 [1]. Cells were transduced for 2 days and subsequently, selected for five days with puromycin and the frequency of eGFP expression was assessed by flow cytometry. The mouse ASIAGO sgRNA CRISPR library contains six independent genome wide pools which each pool containing a unique sgRNA targeting each of 20,077 mouse genes. Four ASIAGO pools were independently used to generate the BV2 library (Doench et al submitted). Each ASIAGO pool was delivered by lentiviral transduction of 5×10^7 BV2 cells at an MOI ˜0.2. This equates to 1×10^7 transduced cells, which is sufficient for the integration of each sgRNA 500 independent times. Two days post transduction, puromycin was added to the media and transduced cells were selected for five days. For each experimental condition, 1×10^7 BV2-Cas9 cells containing sgRNAs were seeded in a T175 tissue culture flask. Cells were infected with either MNoV^CW3 or MNoV^CR6 at MOls of 0.05 and 5. Mock infected cells were harvested 48 hrs after seeding and served as a reference for sgRNA enrichment analysis. Ten days post-infection genomic DNA was isolated from surviving cells using a Qiamp DNA mini kit according to manufacturer instructions (Qiagen).
(§2) Illumina sequencing and STARS analysis was performed as described previously (Doench et al, in press). Briefly, genomic DNA was aliquoted into multiple wells of a 96-well plate with up to 10 μg of DNA in 50 μl total volume. A PCR mastermix consisting of ExTaq DNA polymerase (Clontech), ExTaq buffer, dNTP, P5 stagger primer, and water was generated. 40 μl of PCR master mix, and 10 μl of a barcoded primer was added to each well containing 50 μl of DNA. Samples were PCR amplified as follows: 95° C. for 1 min., followed by 28 cycles of 94° C. for 30 sec., 52.5° C. for 30 sec., 72° C. for 30 sec. with a final 10 min. at 72° C. PCR product was purified with Agencourt AMPure XP SPRI beads according to the manufacture's protocol (Beckman Coluter). Samples were sequenced on an Illumina HiSeq 2000. Barcodes in the P7 primer were deconvuluted and the sgRNA sequence was mapped to a reference file of sgRNAs in the ASIAGO library. To normalize for different numbers of reads per condition, read counts per sgRNA were normalized to 10^7 total reads per sample. This normalized value was then log-2 transformed. sgRNAs that were not sequenced were arbitrarily assigned a read count of 1. sgRNA frequencies were then analyzed using STARS software, which is available at broadinstitute.org/rnai/public/software/index (Doench et al, in press). STARS computes a score for each gene of rank-ordered sgRNA hits that was above […] of total sequenced sgRNAs. A STAR score was only assigned to genes that scored above this threshold in at least two of four independent genome wide pools.

MNoV^CR6 = assay: CRISPR screen in BV2-Cas9 cells, sgRNA enrichment after MNoV^CR6 infection; assay type: cell-based, murine norovirus; settings: for log2 fold enrichment after MNV infection relative to mock infected cells, CR6 MOI 0.05: MNoV^CR6, MOI 0.05, ten days post-infection; for log2 fold enrichment after MNV infection relative to mock infected cells, CR6 MOI 5: MNoV^CR6, MOI 5, ten days post-infection
Description: as §1, §2

| Substance | log2 fold enrichment after MNV infection relative to mock infected cells, CW3 MOI 0.05 (MNoV^CW3) | log2 fold enrichment after MNV infection relative to mock infected cells, CW3 MOI 5 (MNoV^CW3) | log2 fold enrichment after MNV infection relative to mock infected cells, CR6 MOI 0.05 (MNoV^CR6) | log2 fold enrichment after MNV infection relative to mock infected cells, CR6 MOI 5 (MNoV^CR6) |
| --- | --- | --- | --- | --- |
| TACCACGCCACAGGACTCCA: sgRNA used in screen, matches CD300lg (listed as DNA, chemistry not given here) | 0.0 log2 fold enrichment | −6.2 log2 fold enrichment | 0.0 log2 fold enrichment | −6.2 log2 fold enrichment |
| TCAGAGAAAGAAACGAAGAG: sgRNA used in screen, matches CD300lb (listed as DNA, chemistry not given here) | −5.5 log2 fold enrichment | −5.5 log2 fold enrichment | −5.5 log2 fold enrichment | −5.5 log2 fold enrichment |
| GCAGCAAATCCAAATCTCAG: sgRNA used in screen, matches CD300lb (listed as DNA, chemistry not given here) | −5.8 log2 fold enrichment | −5.8 log2 fold enrichment | −5.8 log2 fold enrichment | −5.8 log2 fold enrichment |
| CTAGCTACTACTCTGATAAC: sgRNA used in screen, matches CD300lf (listed as DNA, chemistry not given here) | 0.0 log2 fold enrichment | 11.0 log2 fold enrichment | 0.0 log2 fold enrichment | 9.8 log2 fold enrichment |
| CCTGTGATCCAGAAGAGAAA: sgRNA used in screen, matches CD300lf (listed as DNA, chemistry not given here) | 9.6 log2 fold enrichment | 9.6 log2 fold enrichment | 9.6 log2 fold enrichment | 9.6 log2 fold enrichment |
| CGTAGCCAGACACAGAGCCA: sgRNA used in screen, matches CD300le (listed as DNA, chemistry not given here) | −5.9 log2 fold enrichment | −5.5 log2 fold enrichment | −5.8 log2 fold enrichment | −5.9 log2 fold enrichment |
| CATAGGTCACTGTAAAGGTG: sgRNA used in screen, matches CD300la (listed as DNA, chemistry not given here) | −7.2 log2 fold enrichment | −7.2 log2 fold enrichment | −7.2 log2 fold enrichment | −7.2 log2 fold enrichment |
| CTCCACGTAGGTACACCGCA: sgRNA used in screen, matches CD300lg (listed as DNA, chemistry not given here) | −5.8 log2 fold enrichment | −5.3 log2 fold enrichment | −5.6 log2 fold enrichment | −5.8 log2 fold enrichment |
| GCTACTTACCTGGGAGGAAA: sgRNA used in screen, matches CD300lh (listed as DNA, chemistry not given here) | −5.9 log2 fold enrichment | −5.9 log2 fold enrichment | −5.9 log2 fold enrichment | −5.9 log2 fold enrichment |
| GGTCGTCCCTGATGGACACA: sgRNA used in screen, matches CD300lh (listed as DNA, chemistry not given here) | 12.0 log2 fold enrichment | 7.8 log2 fold enrichment | 12.0 log2 fold enrichment | 11.0 log2 fold enrichment |
| GTTACTGTGAACATTGGCCC: sgRNA used in screen, matches CD300lf (listed as DNA, chemistry not given here) | 0.0 log2 fold enrichment | 12.1 log2 fold enrichment | 0.0 log2 fold enrichment | 12.0 log2 fold enrichment |
| GCCCTTGCTACTTACCTGGG: sgRNA used in screen, matches CD300ld (listed as DNA, chemistry not given here) | 0.0 log2 fold enrichment | −5.5 log2 fold enrichment | 0.0 log2 fold enrichment | −5.5 log2 fold enrichment |
| CTACGCAAATCAGGACCAGG: sgRNA used in screen, matches CD300lg (listed as DNA, chemistry not given here) | −6.4 log2 fold enrichment | −6.4 log2 fold enrichment | −6.4 log2 fold enrichment | −6.4 log2 fold enrichment |
| TAGAGCAGAGAACTGCCACA: sgRNA used in screen, matches CD300ld (listed as DNA, chemistry not given here) | −6.7 log2 fold enrichment | −6.7 log2 fold enrichment | −6.7 log2 fold enrichment | −6.7 log2 fold enrichment |
| TGTCACTGTGAAGATGGTGG: sgRNA used in screen, matches CD300lf (listed as DNA, chemistry not given here) | 8.4 log2 fold enrichment | 13.3^B log2 fold enrichment | 7.2 log2 fold enrichment | −1.9 log2 fold enrichment |
| GGATCCAGTCACAGGTCCAG: sgRNA used in screen, matches CD300lf, CD300lh (listed as DNA, chemistry not given here) | 0.0 log2 fold enrichment | 12.5 log2 fold enrichment | 0.0 log2 fold enrichment | 12.6 log2 fold enrichment |
| GAGTGTGTCATGTCGATATG: sgRNA used in screen, matches CD300la (listed as DNA, chemistry not given here) | −6.2 log2 fold enrichment | −6.2 log2 fold enrichment | −6.2 log2 fold enrichment | −6.2 log2 fold enrichment |
